In patent publication US20100183604A1, “PREVENTIVE/REMEDY FOR CANCER” (TAKEDA PHARMACEUTICAL COMPANY LIMITED, priority 2007, published 2010):
“Also recorded” adds a separate entry of the source.

Key:
[1] = tested on: BT474 cells highly sensitive to trastuzumab; assay: Viable cell count after HER2 inhibitor addition (no siRNA), high sensitive cell line; format: cell-based, human; conditions: 5 days; for growth suppression: 1 μmol/L, no siRNA; for concentration dependence of growth (proliferation) suppression: range of final concentrations, similar level in both lines
Description: (§1) After culture for 5 days at 37° C., 5% CO2, the number of viable cells was counted.

[2] = tested on: trastuzumab low sensitive BT-474 cells; assay: Viable cell count after HER2 inhibitor addition (no siRNA), low sensitive cell line; format: cell-based, human; conditions: 5 days; for growth suppression: 1 μmol/L, no siRNA; for concentration dependence of growth (proliferation) suppression: range of final concentrations, similar level in both lines
Description: as §1

Row | SMILES | growth suppression [1] | concentration dependence of growth (proliferation) suppression [1] | growth suppression [2] | concentration dependence of growth (proliferation) suppression [2]
1 | CS(=O)(=O)CCNCc1ccc(-c2ccc3ncnc(Nc4ccc(OCc5cccc(F)c5)c(Cl)c4)c3c2)o1 [lapatinib] | complete suppression of growth | suppressed in a concentration-dependent manner; also recorded: concentration-dependent growth suppression | complete suppression of growth | suppressed in a concentration-dependent manner; also recorded: concentration-dependent growth suppression
2 | CC(C)(O)CC(=O)NCCn1ccc2ncnc(Nc3ccc(Oc4cccc(C(F)(F)F)c4)c(Cl)c3)c21 [compound A, N-{2-[4-({3-chloro-4-[3-(trifluoromethyl)phenoxy]phenyl}amino)-5H-pyrrolo[3,2-d]pyrimidin-5-yl]ethyl}-3-hydroxy-3-methylbutanamide] | complete suppression of growth | suppressed in a concentration-dependent manner; also recorded: concentration-dependent growth suppression | complete suppression of growth | suppressed in a concentration-dependent manner; also recorded: concentration-dependent growth suppression
